# Data published in patent publication US5359076A, “Cyclic aminophenylacetic acid derivatives, process for preparing the same and immune response modulator having the same as an effective ingredient” (Kyorin Pharmaceutical Co., Ltd., priority 1991, dated 1994).
# Counter-ions that a name gives are not always drawn.
# Key:
# vascular permeability = experiment: Inhibitory effect on vascular permeability (acetic acid, Evans Blue, mice); assay type: in vivo, male ddY-strain mice; conditions: 100 mg/kg, p.o.
# Protocol: Male ddY-strain mice were orally administered with the compound of examples in 5% arabic gum suspension. After 45 minutes, 1% Evans Blue dissolved in saline (0.1 ml/10 g body weight) was injected into tail vein, and immediately, 1% of acetic acid diluted in saline (0.1 ml/10 g body weight) was injected into peritoneal cavity. Thirty minutes later, each mouse was sacrificed and peritoneal cavity was washed with saline (2 ml/10 g body weight). Peritoneal exuded fluid was collected and centrifuged at 3,000 rpm for 10 minutes. The optical density of supernatant was read at 630 nm. The volume of Evans Blue was determined from the calibration curve and the inhibition ratio was calculated.
# adjuvant arthritis = experiment: Therapeutic effect on the adjuvant arthritis in rats (swelling of non-injected hind paw); assay type: in vivo, female SD-strain rats; conditions: oral
# Protocol: Heat-killed Mycobacterium butyricum (0.6 mg/rat) suspended in liquid paraffin was injected intradermally into right hind paw of female SD-strain rats. Test compounds suspended in 0.3% CMC solution were administered orally once a day for 7 days from 14 days to 20 days after the injection of adjuvant. The swelling of non-injected hind paw was measured by the water displacement method.
# [1] = system: IgM antibody-producing cells; experiment: Effect on IgM antibody-producing cells in vitro (Jerne method); assay type: cell-based, BDF1-strain mice; conditions: n 6; for IgM-PFC/culture (mean ± S.E.): reference 82 ± 15, *p < 0.01 (Dunnett's test)
# Protocol: The spleen cells of BDF1 -strain mice were isolated by finely mincing the spleen, centrifuged, and suspended in medium (RPMI-1640+10% FCS). Each 50 μl of spleen cell suspension (2×10^7 cells/ml) and sheep erythrocyte suspension (1×10^7 cells/ml) was spread on a 96-well plate. Test compounds were dissolved in DMSO and diluted in medium. Then, 100 μl of medium containing test compounds were added to the 96-well plate. After the plate was incubated at 37° C. for 5 days in 5% CO2 incubator, the number of IgM antibody-producing cells was counted by Jerne method.
# [2] = system: IgM antibody-producing cells; experiment: Effect on IgM antibody-producing cells in vivo (Jerne method); parameters: species or system BALB/c-strain mice; conditions: 12.5 mg/kg/day, oral 4 days, n 7
# Protocol: To a BALB/c-strain mice were intraperitoneally injected with 5×10^8 /0.1 ml of sheep erythrocytes. The test compound was administered orally once a day for 4 days since the erythrocyte injection. On the next day of final administration, the spleen cells were isolated by finely mincing the spleen, centrifuged and suspended in medium (RPMI-1640+10% FCS). The number of IgM antibody-producing cells was counted by Jerne method.
# [3] = 25 mg/kg/day, 18 Days after adjuvant
# [4] = 25 mg/kg/day, 21 Days after adjuvant
# [5] = 25 mg/kg/day, 27 Days after adjuvant
# [6] = 50 mg/kg/day, 18 Days after adjuvant
# [7] = 50 mg/kg/day, 21 Days after adjuvant
# [8] = 50 mg/kg/day, 27 Days after adjuvant
compound,measurement,setting,value
"O=C(O)Cc1cc2c(c(C(=O)c3ccccc3)c1)NC(C(F)(F)F)CC2 (stereo not drawn) [Example 32, Sodium salt of 8-benzoyl-1,2,3,4-tetrahydro-2-trifluoromethylquinoline-6-acetic acid]",Inhibition ratio (vascular permeability),vascular permeability,19.7%
"O=C(O)Cc1cc(Br)c2c(c1)CCC(C(F)(F)F)N2 (stereo not drawn) [Example 23, 8-Bromo-1,2,3,4-tetrahydro-2-trifluoromethylquinoline-6-acetic acid]",Inhibition ratio (vascular permeability),vascular permeability,38.6%
"O=C(O)Cc1cc(Cl)c2c(c1)CCC(c1ccccc1)N2 (stereo not drawn) [Example 8, 8-Chloro-2-phenyl-1,2,3,4-tetrahydroquinoline-6-acetic acid]",Inhibition ratio (vascular permeability),vascular permeability,50.0%
"O=C(O)Cc1cc(Cl)c2c(c1)CCC(c1ccccc1F)N2 (stereo not drawn) [Example 7, 8-Chloro-2-(2-fluorophenyl)-1,2,3,4-tetrahydroquinoline-6-acetic acid]",Inhibition ratio (vascular permeability),vascular permeability,51.1%
same,Inhibition ratio of swelling,adjuvant arthritis; [3],6%
same,Inhibition ratio of swelling,adjuvant arthritis; [4],19%
same,Inhibition ratio of swelling,adjuvant arthritis; [5],33%
same,Inhibition ratio of swelling,adjuvant arthritis; [6],36%
same,Inhibition ratio of swelling,adjuvant arthritis; [7],52%
same,Inhibition ratio of swelling,adjuvant arthritis; [8],50%
same,Inhibition ratio of swelling,"adjuvant arthritis; 100 mg/kg/day, 18 Days after adjuvant",59%
same,Inhibition ratio of swelling,"adjuvant arthritis; 100 mg/kg/day, 21 Days after adjuvant",64%
same,Inhibition ratio of swelling,"adjuvant arthritis; 100 mg/kg/day, 27 Days after adjuvant",64%
"CN1c2ccc(CC(=O)O)cc2CCC1c1ccccc1 (stereo not drawn) [Example 11, 1-Methyl-2-phenyl-1,2,3,4-tetrahydroquinoline-6-acetic acid]",Inhibition ratio (vascular permeability),vascular permeability,42.7%
"O=C(O)Cc1cc2c(c([N+](=O)[O-])c1)NC(C(F)(F)F)CC2 (stereo not drawn) [Example 33, 8-Nitro-1,2,3,4-tetrahydro-2-trifluoromethylquinoline-6-acetic acid]",Inhibition ratio (vascular permeability),vascular permeability,25.4%
"CC(=O)c1cc(CC(=O)O)cc2c1NC(C(F)(F)F)CC2 (stereo not drawn) [Example 28, 8-Acetyl-1,2,3,4-tetrahydro-2-trifluoromethylquinoline-6-acetic acid]",Inhibition ratio (vascular permeability),vascular permeability,16.7%
"N#Cc1cc(CC(=O)O)cc2c1NC(C(F)(F)F)CC2 (stereo not drawn) [Example 24, 8-Cyano-1,2,3,4-tetrahydro-2-trifluoromethylquinoline-6-acetic acid]",Inhibition ratio (vascular permeability),vascular permeability,25.9%
"COc1ccc(C2CCc3cc(CC(=O)O)cc(Cl)c3N2)cc1 (stereo not drawn) [Example 9, 8-Chloro-2-(4-methoxyphenyl)-1,2,3,4-tetrahydroquinoline-6-acetic acid]",Inhibition ratio (vascular permeability),vascular permeability,16.0%
"O=C(O)Cc1cc2c(c(-c3ccccc3)c1)NC(C(F)(F)F)CC2 (stereo not drawn) [Example 27, 8-Phenyl-1,2,3,4-tetrahydro-2-trifluoromethylquinoline-6-acetic acid]",Inhibition ratio (vascular permeability),vascular permeability,27.0%
"CCOC(=O)Cc1cc(Cl)c2c(c1)CCC(c1ccccc1F)N2 (stereo not drawn) [Example 4, Ethyl 8-chloro-2-(2-fluorophenyl)-1,2,3,4-tetrahydroquinoline-6-acetate]",Inhibition ratio (vascular permeability),vascular permeability,33.1%
"CSc1cc(CC(=O)O)cc2c1NC(C(F)(F)F)CC2 (stereo not drawn) [Example 29, 8-Methylthio-1,2,3,4-tetrahydro-2-trifluoromethylquinoline-6-acetic acid]",Inhibition ratio (vascular permeability),vascular permeability,18.4%
"O=C(O)Cc1ccc2c(c1)CCC(C(F)(F)F)N2 (stereo not drawn) [Example 16, 1,2,3,4-Tetrahydro-2-trifluoromethylquinoline-6-acetic acid]",Inhibition ratio (vascular permeability),vascular permeability,37.3%
"CN1c2c(Cl)cc(CC(=O)O)cc2CCC1c1ccccc1 (stereo not drawn) [Example 12, 8-Chloro-1-methyl-2-phenyl-1,2,3,4-tetrahydroquinoline-6-acetic acid]",Inhibition ratio (vascular permeability),vascular permeability,52.7%
"O=C(O)Cc1cc(Cl)c2c(c1)CCC(C(F)(F)F)N2 (stereo not drawn) [Example 15, 8-Chloro-1,2,3,4-tetrahydro-2-trifluoromethylquinoline-6-acetic acid]",Inhibition ratio (vascular permeability),vascular permeability,29.1%
same,IgM-PFC/culture (mean ± S.E.),[1]; 2 × 10^-6 M,24 ± 3 IgM-PFC/culture
same,IgM-PFC/culture (mean ± S.E.),[1]; 5 × 10^-5 M,31 ± 9 IgM-PFC/culture
same,inhibition at 2 µM,"[1]; Mus musculus, 120 h, 2 × 10^-6 M, read-out: Inhibition ratio (IgM-PFC in vitro)",71%
same,inhibition at 50 µM,"[1]; Mus musculus, 120 h, 5 × 10^-5 M, read-out: Inhibition ratio (IgM-PFC in vitro)",62%
same,Inhibition ratio of swelling,"adjuvant arthritis; 12.5 mg/kg/day, 18 Days after adjuvant",21%
same,Inhibition ratio of swelling,"adjuvant arthritis; 12.5 mg/kg/day, 21 Days after adjuvant",36%
same,Inhibition ratio of swelling,"adjuvant arthritis; 12.5 mg/kg/day, 27 Days after adjuvant",50%
same,Inhibition ratio of swelling,adjuvant arthritis; [3],39%
same,Inhibition ratio of swelling,adjuvant arthritis; [4],45%
same,Inhibition ratio of swelling,adjuvant arthritis; [5],52%
same,Inhibition ratio of swelling,adjuvant arthritis; [6],39%
same,Inhibition ratio of swelling,adjuvant arthritis; [7],56%
same,Inhibition ratio of swelling,adjuvant arthritis; [8],58%
same,Inhibition ratio (IgM-PFC in vivo),[2],35%
same,IgM-PFC/spleen (× 10^2) (mean ± S.E.),"[2]; reference 995 ± 55, *p < 0.05 (Dunnett's test)",651 ± 49 IgM-PFC/spleen (× 10^2)
